Experimental data: patent US20210017607A1, “Methods of Predicting Responsiveness to Cancer Therapies” (The University of Chicago, priority 2019, published 2021)

Key:
[1] = system: PTEN/p53-deficient GEMM tumors; experiment: PTEN/p53-deficient GEMM in vivo immune profiling; design: species or system mouse; settings: for CD4 and CD8 T-cell infiltration / Gr-MDSC and Tregs: copanlisib 14 mg/kg/day every alternate day, 4 weeks
Method: FIGS. 48A and 48B. […] PTEN/p53-deficient GEMM mice with established tumors were treated with DMXAA every other day for 14 days. Tumors were harvested and subjected to flow cytometry for detection of the indicated markers. (48A) CD8 infiltration; (48B) M1/M2 ratio of F4/80^+ cells where M1 are defined as MHC-II^+ and M2 cells are MHC-II^−. The frequency of Gr-MDSCs (Ly6C^−Ly6G^+) and surface expression of V-domain Ig suppressor of T cell activation (VISTA) and PD-L1 on Gr-MDSCs are shown.
FIGS. 71A and 71B. […] PTEN/p53-deficient GEMM mice (n=2/group) with established tumors were treated with copanlisib (14 mg/kg/day, every alternate day) for 4 weeks. Tumors were collected and analyzed for changes in global immune infiltrates, shown clockwise from twelve o'clock: CD4+, CD8+, CD19+, F4/80+, CD11c+, Mo-MDSC, Gr-MDSC, neutrophils (71A) and Treg frequency (71B) by flow cytometry. n=2 mice per arm.
Flow Cytometry. Murine tumors: Murine tumors were processed into single cell suspensions via gentle mechanical dissociation in 6 well plates containing 1 mL of 10% RPMI media supplemented with 10% fetal bovine serum, 1% penicillin-streptomycin and 2% L-glutamine. Cell suspensions were centrifuged at 500×g for 5 minutes at 4° C. and were passed through a 70-micron mesh, prior to re-suspension in FACS buffer (1×PBS containing 0.5% FBS and 0.01% sodium azide). For the stain, one million cells resuspended in 1×FACS buffer, were incubated with titrated concentrations of anti-mouse antibodies (Biolegend®), namely, CD45, CD11b, CD11c, CD19, F480,Ly6G, Ly6C, PD-L1, VISTA, I-A^e/IA^b, H-2K^b, CD3, CD4, CD8, 4-1BB, ICOS, and PD-1. Incubation with antibodies was done at 4° C. for 30-40 minutes. Following staining, cells were washed twice with 1× FACS buffer and fixed with 300 microliters of 4% paraformaldehye (Fisher Scientific®). Intracellular stains were done following fixation and permeabilization by staining with anti-mouse FOXP3 (Biolegend®) as per manufacturer's protocol. Analysis of cellular stains were done using BD instrument LSR 4-15 Fortessa™. Data files collected using BDFACSDIVA software were analyzed using FlowJo® software (Tree Star).

[2] = system: Myc-CAP (STING^lo) cells; experiment: Annexin V-PI viability assay; format: cell-based, mouse; settings: rucaparib 500 nM, buparlisib 1 μM, singly and in combination
From the text: (§1) FIGS. 29A-29M. PARPi alone induces DNA DSBs, but not apoptosis even in combination with PI3Ki in Myc-CAP (STING^lo) cancer cells; PARPi/PI3Ki combination induces intracellular DNA DSBs and proportionate release of MV surface-associated DNA DSBs from B6-Myc (STINGhi) cancer cells without affecting cellular viability; PARPi/PI3K treatment activates tumor-cell extrinsic cGAS/STING pathway within TAMs in vivo via MV surface-associated DNA DSBs released from tumor cells. Myc-CAP cancer cells were treated with the indicated drugs singly or in combination for 36 hours. (29A) Cells were stained with anti-mouse specific p-γH2AX antibody and a fluorescently labeled secondary antibody for determination of DNA DSBs, which were quantified by confocal microscopy. (29B) Protein extracts from cells in 29A were analyzed for the indicated pharmacodynamic biomarkers by western blotting; (29C) Annexin V-PI staining was done to assess frequency of live cells (Annexin V^− PI^−) following drug treatment. (29D) Ultracentrifugation was utilized to purify microvesicles (MVs) from supernatants in treatment groups in (29A) and associated DNA DSBs was quantified by Nanodrop®. Independent experiments n=2. (29E) Ultracentrifugation was utilized to purify MVs from supernatants in indicated treatment groups in FIG. 17A, and associated DNA DSBs were quantified by Nanodrop®; n=2 independent experiments. […]

[3] = system: Myc-CAP (STING^lo) cells; experiment: p-γH2AX foci (DNA DSBs) by confocal microscopy; format: cell-based, mouse
From the text: as §1

[4] = DMXAA every other day for 14 days

Cc1ccc2c(=O)c3cccc(CC(=O)O)c3oc2c1C [DMXAA, 5,6-Dimethylxanthenone-4-acetic Acid]
CD8 T cell infiltration [1, 4]: increases CD8 T cell infiltration | myeloid immunosuppression [1, 4]: relieves myeloid immunosuppression | MDSC infiltration ([1]; DMXAA, PTEN/p53 GEMM mice): decreased MDSC infiltration | VISTA and PD-L1 checkpoint expression on MDSCs ([1]; DMXAA, PTEN/p53 GEMM mice): reduction | myeloid reprogramming and Type I interferon production within the TME ([1]; Myc-CAP-PTEN knockout and PTEN/p53-deficient GEMM tumors): myeloid reprogramming and Type I interferon production | TIL exhaustion markers ([1]; after DMXAA): decreased 4-1BB, decreased ICOS and increased PD-1

Nc1cc(C(F)(F)F)c(-c2cc(N3CCOCC3)nc(N3CCOCC3)n2)cn1 [buparlisib]
viability of cells [2]: no change in the viability | DNA damage on addition to rucaparib, relative to rucaparib alone [3]: did not further increase DNA damage

COc1c(OCCCN2CCOCC2)ccc2c1N=C(NC(=O)c1cnc(N)nc1)N1CCN=C21 [copanlisib]
CD4 and CD8 T-cell infiltration [1]: striking increase | Gr-MDSC and Tregs [1]: depletion | CD4 and CD8 T-cell infiltration ([1]; listed as Copanlisib): increases CD4 and CD8 T-cell infiltration | Gr-MDSC and Tregs ([1]; listed as Copanlisib): decreases Gr-MDSC and Tregs

CNCc1ccc(-c2[nH]c3cc(F)cc4c3c2CCNC4=O)cc1 [rucaparib]
viability of cells [2]: no change in the viability | DNA DSBs (number of p-γH2AX foci) ([3]; 36 hours): increase in DNA DSBs
